The values below come from ChEMBL document CHEMBL3886313, “Ketone linked benzothiazole inhibitors of endothelial lipase” (2015).

The target in the assay is T1, Endothelial lipase (Homo sapiens, UniProt Q9Y5X9).
T1 sequence (Q9Y5X9 whole entry): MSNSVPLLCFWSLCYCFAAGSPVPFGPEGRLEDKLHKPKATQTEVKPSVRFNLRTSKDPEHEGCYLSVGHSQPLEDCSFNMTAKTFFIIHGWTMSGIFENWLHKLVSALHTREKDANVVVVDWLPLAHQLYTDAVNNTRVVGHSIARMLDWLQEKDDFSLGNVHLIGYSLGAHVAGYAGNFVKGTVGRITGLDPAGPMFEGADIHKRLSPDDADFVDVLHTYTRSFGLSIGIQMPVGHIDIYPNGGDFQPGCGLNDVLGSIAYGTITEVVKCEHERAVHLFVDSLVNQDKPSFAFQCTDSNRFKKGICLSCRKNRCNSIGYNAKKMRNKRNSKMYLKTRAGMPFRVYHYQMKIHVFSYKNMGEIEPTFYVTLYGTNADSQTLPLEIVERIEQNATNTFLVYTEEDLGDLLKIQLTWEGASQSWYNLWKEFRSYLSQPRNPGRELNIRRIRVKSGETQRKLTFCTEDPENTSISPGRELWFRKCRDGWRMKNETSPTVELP
The assay can be described thus: Enzymatic Assay: The enzymatic assay was measured using white, opaque 96-well half area plates. Each well contained 60 μL of assay buffer (50 mM HEPES pH 8.0, 50 mM NaCl and 1 mM CaCl2) and 2 ul of a DMSO solution containing compound of interest. Conditioned media obtained from HT-1080 cells, which were transformed by RAGE technology (Athersys) to overexpress endogenous EL, was added and the reaction was allowed to incubate for 20 min at 37° C. with gentle agitation. The reaction was started by the addition of 20 μL of a 1:4 dilution of vesicles. The final total reaction volume was 100 μL. The reaction rates were measured on a Gemini plate reader with an excitation wavelength of 488 nm and an emission of 530 nm. Readings were taken every 20 seconds for 10 min with agitation between each reading. Format: cell-based.
One may read the IC50 as the concentration that inhibits the measured activity by half. A higher IC50 goes with weaker potency in that assay. The compound `COc1nc(-c2nnc(C(=O)c3nc4ccc(-c5ccc(F)cc5)cc4s3)o2)c(OCc2ccccc2)c(=O)[nH]1` showed a half-inhibitory concentration (IC50) of 0.122 µM.

Compound `CC(C)(C)CN1CC(c2nnc(C(=O)c3nc4ccc(-c5ccc(F)cc5)cc4s3)o2)C1` returned an IC50 of 0.0048 µM.

For `C[C@H](NC(=O)OC(C)(C)C)c1nnc(C(=O)c2nc3ccc(-c4ccccc4)cc3s2)o1`, the IC50 was 0.066 µM.

For the compound `O=C1NC(=O)C(Cc2nnc(C(=O)c3nc4ccc(-c5ccccc5)cc4s3)o2)S1` (stereo not given), the IC50 is < 0.01 µM.

Consider `CC(C)(C)CN1CC(c2nnc(C(=O)c3nc4c(F)cc(-c5ccccc5)cc4s3)o2)C1`, for which the midpoint of inhibition, the IC50, lay at 0.018 µM.

In the case of `CC1(Cc2nnc(C(=O)c3nc4ccc(-c5ccccc5)cc4s3)o2)NC(=O)N(CC(F)(F)F)C1=O` (stereo not given), the IC50 is < 0.01 µM.

Regarding `NS(=O)(=O)Cc1nnc(C(=O)c2nc3ccc(-c4ccccc4)cc3s2)o1`, the IC50 is < 0.01 µM.

`COc1nc(-c2nnc(C(=O)c3nc4ccc(-c5ccccc5)cc4s3)o2)c(OCc2ccccc2)c(=O)[nH]1` had an IC50 of 0.076 µM.

With `O=C1NC(=O)C(Cc2nnc(C(=O)c3nc4ccc(-c5ccccc5)cc4s3)o2)N1` (stereo not given), the IC50 is < 0.01 µM.

As to `C[C@@H](NC(=O)OC(C)(C)C)c1nnc(C(=O)c2nc3ccc(-c4ccccc4)cc3s2)o1`, the IC50 is < 0.01 µM.
